Measured values as given in patent US9346786B2, “Pyrrolidine compounds” (Hoffmann-La Roche Inc., priority 2009, dated 2016).

Target: recombinant human NK3 receptor (Homo sapiens (Human), UniProt P29371)
Assay: biochemical
Assay type: binding
Details: [3H]SR142801, membranes of HEK293 cells transiently expressing recombinant human NK3 receptor; read-out: Data Ki (hNK-3 receptor affinity)
Experimental: [^3H]SR142801 Competition Binding Assay
hNK3 receptor binding experiment were performed using [^3H]SR142801 (Catalog No. TRK1035, specific activity: 74.0 Ci/mmol, Amersham, GE Healthcare UK limited, Buckinghamshire, UK) and membrane isolated from HEK293 cells transiently expressing recombinant human NK3 receptor. After thawing, the membrane homogenates were centrifuged at 48,000×g for […] at 4° C., the pellets were resuspended in the 50 mM Tris-HCl, 4 mM MnCl2, 1 μM phosphoramidon, 0.1% BSA binding buffer at pH 7.4 to a final assay concentration of 5 μg protein/well. For inhibition experiments, membranes were incubated with [^3H]SR142801 at a concentration equal to KD value of radioligand and 10 concentrations of the inhibitory compound (0.0003-10 μM) (in a total reaction volume of 500 μl) for 75 min at room temperature (RT). At the end of the incubation, membranes were filtered onto unitfilter (96-well white microplate with bonded GF/C filter preincubated 1 h in 0.3% PEI+0.3% BSA, Packard BioScience, Meriden, Conn.) with a Filtermate 196 harvester (Packard BioScience) and washed 4 times with ice-cold 50 mM Tris-HCl, pH 7.4 buffer. Nonspecific binding was measured in the presence of 10 μM SB222200 for both radioligands. The radioactivity on the filter was counted (5 min) on a Packard Top-count microplate scintillation counter with quenching correction after addition of 45 μl of microscint 40 (Canberra Packard S.A., Zürich, Switzerland) and shaking for 1 h. Inhibition curves were fitted according to the Hill equation: y=100/(1+(x/IC50)^nH), where nH=slope factor using Excel-fit 4 software (Microsoft). IC50 values were derived from the inhibition curve and the affinity constant (Ki) values were calculated using the Cheng-Prussoff equation Ki=IC50/(1+[L]/KD) where [L] is the concentration of radioligand and KD is its dissociation constant at the receptor, derived from the saturation isotherm. All experiments were performed in duplicate and the mean±standard error (SEM) of the individual Ki values was calculated.

Chain of recombinant human NK3 receptor (P29371 whole entry): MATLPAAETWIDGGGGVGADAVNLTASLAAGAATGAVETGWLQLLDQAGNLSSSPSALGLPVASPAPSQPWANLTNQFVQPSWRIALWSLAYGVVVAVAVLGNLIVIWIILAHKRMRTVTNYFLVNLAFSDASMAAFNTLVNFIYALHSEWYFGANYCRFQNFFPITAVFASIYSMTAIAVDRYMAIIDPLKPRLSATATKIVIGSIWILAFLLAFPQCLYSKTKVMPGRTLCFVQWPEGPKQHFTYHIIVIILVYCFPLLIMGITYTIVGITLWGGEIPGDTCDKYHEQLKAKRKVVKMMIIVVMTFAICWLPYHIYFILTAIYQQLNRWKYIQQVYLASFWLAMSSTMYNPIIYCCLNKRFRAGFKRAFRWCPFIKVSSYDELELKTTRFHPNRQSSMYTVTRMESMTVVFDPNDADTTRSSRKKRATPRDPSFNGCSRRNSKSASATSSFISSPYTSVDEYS

| SMILES | Ki |
| --- | --- |
| CCN(C(=O)Oc1ccc(F)cc1)[C@@H]1CN(C(=O)C2CCN(C(=O)[C@@H]3CC(=O)N3)CC2)C[C@H]1c1ccc(F)c(F)c1 [Example 106, {(3S,4R)-4-(3,4-Difluoro-phenyl)-1-[1-((S)-4-oxo-azetidine-2-carbonyl)-piperidine-4-carbonyl]-pyrrolidin-3-yl}-ethyl-carbamic acid 4-fluoro-phenyl ester] | 66 nM |
| CCN(C(=O)Oc1ccc(F)cc1)[C@@H]1CN(C(=O)C2CCN(C(=O)c3ccc(C(F)(F)F)cn3)CC2)C[C@H]1c1ccc(Cl)cc1 [Example 101, {(3S,4R)-4-(4-Chloro-phenyl)-1-[1-(5-trifluoromethyl-pyridine-2-carbonyl)-piperidine-4-carbonyl]-pyrrolidin-3-yl}-ethyl-carbamic acid 4-fluoro-phenyl ester] | 42.5 nM |
| CCN(C(=O)Oc1ccc(F)cc1)[C@@H]1CN(C(=O)C2CCNCC2)C[C@H]1c1ccc(Cl)c(F)c1 [Example 56, [(3S,4R)-4-(4-Chloro-3-fluoro-phenyl)-1-(piperidine-4-carbonyl)-pyrrolidin-3-yl]-ethyl-carbamic acid 4-fluoro-phenyl ester] | 267 nM |
| CCN(C(=O)Oc1ccc(F)cc1)[C@@H]1CN(C(=O)C2CCN(C(=O)C3CC3(C)C)CC2)C[C@H]1c1ccc(Cl)cc1 (stereo partly drawn) [Example 100, {(3S,4R)-4-(4-Chloro-phenyl)-1-[1-(2,2-dimethyl-cyclopropanecarbonyl)-piperidine-4-carbonyl]-pyrrolidin-3-yl}-ethyl-carbamic acid 4-fluoro-phenyl ester] | 3.6 nM |
| CCN(C(=O)Oc1ccc(F)cc1)[C@@H]1CN(C(=O)C2CCN(C(=O)C3CC3(F)F)CC2)C[C@H]1c1ccc(Cl)c(F)c1 (stereo partly drawn) [Example 70, {(3S,4R)-4-(4-Chloro-3-fluoro-phenyl)-1-[1-(2,2-difluoro-cyclopropanecarbonyl)-piperidine-4-carbonyl]-pyrrolidin-3-yl}-ethyl-carbamic acid 4-fluoro-phenyl ester] | 4 nM |
| CCN(C(=O)Oc1ccc(F)cc1)[C@@H]1CN(C(=O)C2CCN(C(=O)c3ccc(C(F)(F)F)cn3)CC2)C[C@H]1c1ccc(Cl)c(F)c1 [Example 74, {(3S,4R)-4-(4-Chloro-3-fluoro-phenyl)-1-[1-(5-trifluoromethyl-pyridine-2-carbonyl)-piperidine-4-carbonyl]-pyrrolidin-3-yl}-ethyl-carbamic acid 4-fluoro-phenyl ester] | 12 nM |
| CC(C)N(C(=O)Oc1ccc(F)cc1)[C@@H]1CN(C(=O)C2CCN(c3ccc(C(F)(F)F)cn3)CC2)C[C@H]1c1ccc(Cl)cc1 [Example 25, [(3S,4R)-4-(4-Chloro-phenyl)-1-(5′-trifluoromethyl-3,4,5,6-tetrahydro-2H-[1,2′]bipyridinyl-4-carbonyl)-pyrrolidin-3-yl]-isopropyl-carbamic acid 4-fluoro-phenyl ester] | 112 nM |
| CC(C)CN(C(=O)Oc1ccc(F)cc1)[C@@H]1CN(C(=O)C2CCN(C(=O)C3(C)CC3)CC2)C[C@H]1c1ccc(Cl)c(Cl)c1 (racemic) [Example 3, rac-{(3S,4R)-4-(3,4-Dichloro-phenyl)-1-[1-(1-methyl-cyclopropanecarbonyl)-piperidine-4-carbonyl]-pyrrolidin-3-yl}-isobutyl-carbamic acid 4-fluoro-phenyl ester] | 276 nM |
| CCN(C(=O)Oc1ccc(F)cc1)[C@@H]1CN(C(=O)C2CCN(c3cnc(C#N)cn3)CC2)C[C@H]1c1ccc(F)c(F)c1 [Example 62, [(3S,4R)-1-[1-(5-Cyano-pyrazin-2-yl)-piperidine-4-carbonyl]-4-(3,4-difluoro-phenyl)-pyrrolidin-3-yl]-ethyl-carbamic acid 4-fluoro-phenyl ester] | 6 nM |
| CCN(C(=O)Oc1ccc(F)cc1)[C@@H]1CN(C(=O)C2CCN(c3ccc(C#N)nc3)CC2)C[C@H]1c1ccc(Cl)c(F)c1 [Example 43, [(3S,4R)-4-(4-Chloro-3-fluoro-phenyl)-1-(6′-cyano-3,4,5,6-tetrahydro-2H-[1,3′]bipyridinyl-4-carbonyl)-pyrrolidin-3-yl]-ethyl-carbamic acid 4-fluoro-phenyl ester] | 0.3 nM |
| CCN(C(=O)Oc1ccc(F)cc1)[C@@H]1CN(C(=O)C2CCN(c3ccc(C(C)=O)cn3)CC2)C[C@H]1c1ccc(Cl)cc1 [Example 14, [(3S,4R)-1-(5′-Acetyl-3,4,5,6-tetrahydro-2H-[1,2′]bipyridinyl-4-carbonyl)-4-(4-chloro-phenyl)-pyrrolidin-3-yl]-ethyl-carbamic acid 4-fluoro-phenyl ester] | 3 nM |
| CCN(C(=O)Oc1ccc(F)cc1)[C@@H]1CN(C(=O)C2CCN(C(=O)C3(C(F)(F)F)CC3)CC2)C[C@H]1c1ccc(Cl)cc1 [Example 95, {(3S,4R)-4-(4-Chloro-phenyl)-1-[1-(1-trifluoromethyl-cyclopropanecarbonyl)-piperidine-4-carbonyl]-pyrrolidin-3-yl}-ethyl-carbamic acid 4-fluoro-phenyl ester] | 6.1 nM |
| CCN(C(=O)Oc1ccc(F)cc1)[C@@H]1CN(C(=O)C2CCN(c3cc(C#N)ccn3)CC2)C[C@H]1c1ccc(F)c(F)c1 [Example 53, [(3S,4R)-1-(4′-Cyano-3,4,5,6-tetrahydro-2H-[1,2′]bipyridinyl-4-carbonyl)-4-(3,4-difluoro-phenyl)-pyrrolidin-3-yl]-ethyl-carbamic acid 4-fluoro-phenyl ester] | 16 nM |
| CC(=O)c1ccc(N2CCC(C(=O)N3C[C@@H](N(C(=O)Oc4ccc(F)cc4)C4CC4)[C@H](c4ccc(Cl)cc4)C3)CC2)nc1 [Example 30, [(3S,4R)-1-(5′-Acetyl-3,4,5,6-tetrahydro-2H-[1,2′]bipyridinyl-4-carbonyl)-4-(4-chloro-phenyl)-pyrrolidin-3-yl]-cyclopropyl-carbamic acid 4-fluoro-phenyl ester] | 35 nM |

Same assay, conditions: read-out: Data Ki (hNK-3 receptor affinity)

| SMILES | Ki |
| --- | --- |
| CCN(C(=O)Oc1ccc(F)cc1)[C@@H]1CN(C(=O)C2CCN(c3ccc(Cl)cn3)CC2)C[C@H]1c1ccc(F)cc1 [Example 36, [(3S,4R)-1-(5′-Chloro-3,4,5,6-tetrahydro-2H-[1,2′]bipyridinyl-4-carbonyl)-4-(4-fluoro-phenyl)-pyrrolidin-3-yl]-ethyl-carbamic acid 4-fluoro-phenyl ester] | 10 nM |
| CCN(C(=O)Oc1ccc(F)cc1)[C@@H]1CN(C(=O)C2CCN(C(=O)C3(C#N)CC3)CC2)C[C@H]1c1ccc(Cl)c(F)c1 [Example 72, {(3S,4R)-4-(4-Chloro-3-fluoro-phenyl)-1-[1-(1-cyano-cyclopropanecarbonyl)-piperidine-4-carbonyl]-pyrrolidin-3-yl}-ethyl-carbamic acid 4-fluoro-phenyl ester] | 2 nM |
| CCN(C(=O)Oc1ccc(F)cc1)[C@H]1CN(C(=O)C2CCN(c3cnc(C#N)cn3)CC2)C[C@@H]1c1ccc(Cl)cc1 [Example 11, {(3R,4S)-4-(4-Chloro-phenyl)-1-[1-(5-cyano-pyrazin-2-yl)-piperidine-4-carbonyl]-pyrrolidin-3-yl}-ethyl-carbamic acid 4-fluoro-phenyl ester] | 36 nM |
| CCN(C(=O)Oc1ccc(F)cc1)[C@@H]1CN(C(=O)C2CCN(c3cnc(C#N)cn3)CC2)C[C@H]1c1ccc(Cl)cc1 [Example 17, {(3S,4R)-4-(4-Chloro-phenyl)-1-[1-(5-cyano-pyrazin-2-yl)-piperidine-4-carbonyl]-pyrrolidin-3-yl}-ethyl-carbamic acid 4-fluoro-phenyl ester] | 2 nM |
